Test results published in the supplement of paper PMC10307832.

Assays:
Assay in all cases: relative viability (nuclei count vs DMSO), 5 days (fraction); higher = more cells survive
[1] = compound: COc1cc2ncn(-c3cc(OCc4ccccc4C(F)(F)F)c(C(N)=O)s3)c2cc1OC + O=C(CCCCCCC(=O)Nc1ccccc1)NO [Vorinostat] (partner 1 µM)
In short: (§1)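 Relative viability was taken as the ratio of nuclei in treated wells to nuclei in vehicle wells. Lung cancer cell lines in 1536-well plates received compounds by pin tool one day after seeding, either one drug alone or a fixed anchor-drug dose plus five library-drug doses (not always all listed) in √10 steps. Nuclei were counted on 4× images after 5 days of treatment, and values are medians of duplicate plates.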

[2] = compound: COc1cc2ncn(-c3cc(OCc4ccccc4C(F)(F)F)c(C(N)=O)s3)c2cc1OC + C[C@]1(O)C[C@@H](c2nc(-c3ccc4ccc(-c5ccccc5)nc4c3)c3c(N)nccn32)C1 [Linsitinib] (partner 1 µM)
In short: as §1

[3] = compound: COc1cc2ncn(-c3cc(OCc4ccccc4C(F)(F)F)c(C(N)=O)s3)c2cc1OC + CC1(C)CCC(c2ccc(Cl)cc2)=C(CN2CCN(c3ccc(C(=O)NS(=O)(=O)c4ccc(N[C@H](CCN5CCOCC5)CSc5ccccc5)c(S(=O)(=O)C(F)(F)F)c4)cc3)CC2)C1 [Navitoclax] (partner 0.5 µM)
In short: as §1

[4] = compound: COc1cc2ncn(-c3cc(OCc4ccccc4C(F)(F)F)c(C(N)=O)s3)c2cc1OC + Cc1nc(NC(=O)N2CCC[C@H]2C(N)=O)sc1-c1ccnc(C(C)(C)C(F)(F)F)c1 [Alpelisib] (partner 2 µM)
In short: as §1

| Cell Line | relative viability ([1]; first compound 0.05 µM) | relative viability ([1]; first compound 0.1581 µM) | relative viability ([1]; first compound 0.5 µM) | relative viability ([1]; first compound 1.581 µM) | relative viability ([1]; first compound 5 µM) | relative viability ([2]; first compound 0.05 µM) | relative viability ([2]; first compound 0.1581 µM) | relative viability ([2]; first compound 0.5 µM) | relative viability ([2]; first compound 1.581 µM) | relative viability ([2]; first compound 5 µM) | relative viability ([3]; first compound 0.05 µM) | relative viability ([3]; first compound 0.1581 µM) | relative viability ([3]; first compound 0.5 µM) | relative viability ([3]; first compound 1.581 µM) | relative viability ([3]; first compound 5 µM) | relative viability ([4]; first compound 0.05 µM) | relative viability ([4]; first compound 0.1581 µM) | relative viability ([4]; first compound 0.5 µM) | relative viability ([4]; first compound 1.581 µM) | relative viability ([4]; first compound 5 µM) |
| --- | --- | --- | --- | --- | --- | --- | --- | --- | --- | --- | --- | --- | --- | --- | --- | --- | --- | --- | --- | --- |
| NCI-H647 | 0.326 | 0.489 | 0.113 | 0.0523 | 0.0497 | 1.07 | 1.09 | 0.267 | 0.101 | 0.126 | 1.17 | 1.08 | 0.245 | 0.0619 | 0.0475 | 1.23 | 1.1 | 0.214 | 0.079 | 0.0802 |
| NCI-H1793 | 0.553 | 0.42 | 0.328 | 0.17 | 0.113 | 0.928 | 0.847 | 0.763 | 0.248 | 0.145 | 0.928 | 0.544 | 0.187 | 0.221 | 0.139 | 0.611 | 0.745 | 0.394 | 0.22 | 0.191 |
| NCI-H1395 | 0.711 | 0.688 | 0.466 | 0.354 | 0.25 | 0.967 | 1 | 0.593 | 0.395 | 0.388 | 1.17 | 1.17 | 0.611 | 0.447 | 0.384 | 1.04 | 1.11 | 0.726 | 0.342 | 0.375 |
| HCC-827 | 0.995 | 0.887 | 0.763 | 0.376 | 0.445 | 0.968 | 0.924 | 0.798 | 0.401 | 0.27 | 0.988 | 0.99 | 0.874 | 0.287 | 0.201 | 0.887 | 1.03 | 0.667 | 0.286 | 0.226 |
| NCI-H2228 | 0.283 | 0.575 | 0.196 | 0.111 | 0.104 | 0.525 | 0.52 | 0.253 | 0.176 | 0.231 | 1.05 | 1.3 | 0.167 | 0.0999 | 0.105 | 0.612 | 0.866 | 0.186 | 0.187 | 0.272 |
| EMC-BAC-2 | 0.899 | 0.535 | 0.305 | 0.223 | 0.158 | 0.906 | 0.843 | 0.696 | 0.509 | 0.164 | 1.2 | 1.14 | 1.07 | 0.766 | 0.178 | 0.804 | 0.799 | 0.639 | 0.403 | 0.149 |
| NCI-H23 | 0.519 | 0.284 | 0.0883 | 0.121 | 0.0755 | 0.655 | 0.371 | 0.274 | 0.113 | 0.131 | 0.913 | 0.773 | 0.284 | 0.157 | 0.103 | 0.836 | 0.363 | 0.326 | 0.137 | 0.102 |
| SK-LU-1 | 0.615 | 0.529 | 0.301 | 0.304 | 0.257 | 1.28 | 1.01 | 0.395 | 0.399 | 0.295 | 0.641 | 0.56 | 0.794 | 0.123 | 0.113 | 1.02 | 0.778 | 0.276 | 0.291 | 0.306 |
